Laboratory results published in publication PMC5298231, “The Malaria Parasite's Lactate Transporter PfFNT Is the Target of Antiplasmodial Compounds Identified in Whole Cell Phenotypic Screens” (PLoS Pathogens, 2017).
Structures can show the parent of a compound that is named as a salt. Peptide text beside a SMILES is read from it.

Test system: erythrocytes infected with 3D7 trophozoites
Type: cell-based, Plasmodium falciparum
Conditions: sheet Ratio; for Ratio of metabolite abundance, Exp1_1hr: Exp1, 1hr; for Ratio of metabolite abundance, Exp1_3hr: Exp1, 3hr; for Ratio of metabolite abundance, Exp1_6hr: Exp1, 6hr; for Ratio of metabolite abundance, Exp2_1hr: Exp2, 1hr; for Ratio of metabolite abundance, Exp2_3hr: Exp2, 3hr; for Ratio of metabolite abundance, Exp2_6hr: Exp2, 6hr; for Ratio of metabolite abundance, Exp3_1hr: Exp3, 1hr; for Ratio of metabolite abundance, Exp3_3hr: Exp3, 3hr; for Ratio of metabolite abundance, Exp3_6hr: Exp3, 6hr

| Structure (SMILES) | Ratio of metabolite abundance, Exp1_1hr | Ratio of metabolite abundance, Exp1_3hr | Ratio of metabolite abundance, Exp1_6hr | Ratio of metabolite abundance, Exp2_1hr | Ratio of metabolite abundance, Exp2_3hr | Ratio of metabolite abundance, Exp2_6hr | Ratio of metabolite abundance, Exp3_1hr | Ratio of metabolite abundance, Exp3_3hr | Ratio of metabolite abundance, Exp3_6hr |
| --- | --- | --- | --- | --- | --- | --- | --- | --- | --- |
| Nc1ccn([C@@H]2O[C@H](COP(=O)(O)OP(=O)(O)OP(=O)(O)O)[C@@H](O)[C@H]2O)c(=O)n1 [CTP] | 0.8417 | 0.6895 | 0.6055 | 0.8987 | 0.9317 | 0.7353 | 0.7379 | 0.8137 | 0.693 |
| CC(C)CCC[C@@H](C)[C@H]1CC[C@H]2[C@@H]3CC=C4C[C@@H](OS(=O)(=O)O)CC[C@]4(C)[C@H]3CC[C@]12C [Cholesteryl sulfate] | 0.8398 | 0.919 | 0.8716 | 0.7894 | 1.057 | 0.9329 | 0.813 | 0.7802 | 0.8279 |
| CC(C)(COP(=O)(O)OP(=O)(O)OC[C@H]1O[C@@H](n2cnc3c(N)ncnc32)[C@H](O)[C@@H]1OP(=O)(O)O)[C@@H](O)C(=O)NCCC(=O)NCCS [CoA] | 0.7833 | 0.6851 | 0.6052 | 0.7277 | 0.6878 | 0.6949 | 0.705 | 0.6678 | 0.6155 |
| O=C1O[C@H]([C@H](O)CO)[C@H](O)[C@H]1O [D-Glucono-1-4-lactone] | 3.064 | 5.2964 | 6.162 | 1.636 | 4.1814 | 4.766 | 5.473 | 2.843 | 3.44 |
| CC(C)C[C@H](NC(=O)[C@H](C)NC(=O)[C@@H](N)CC(=O)O)C(=O)N[C@H](C(=O)O)[C@@H](C)O [DALT] (H-DALT-OH) | 0.634 | 0.4153 | 1.635 | 0.755 | 0.5469 | 1.439 | 0.7343 | 0.6802 | 1.903 |
| CC(C)[C@H](NC(=O)[C@H](CCC(=O)O)NC(=O)[C@@H](N)CC(=O)O)C(=O)NCC(=O)O [DEVG] (H-DEVG-OH) | 1.013 | 0.6309 | 0.8753 | 0.8701 | 1.059 | 1.02 | 1.139 | 1.261 | 0.9839 |
| CCCCC/C=C\C/C=C\C/C=C\CCCCCCC(=O)O [DGLA] | 0.6512 | 0.4296 | 1.744 | 0.832 | 0.6938 | 1.456 | 0.7202 | 0.7277 | 2.242 |
| CC(C)C[C@H](NC(=O)[C@@H](N)CC(=O)O)C(=O)N[C@@H](CO)C(=O)O [DLS] (H-Asp-Leu-Ser-OH) | 0.4981 | 0.5494 | 0.8725 | 0.8907 | 0.8658 | 1.124 | 0.9354 | 0.5821 | 0.7887 |
| O=C1CC(C(=O)O)NC(=O)N1 (stereo not drawn) [Dihydroorotate] | 0.7855 | 0.5689 | 0.4919 | 0.9051 | 0.4712 | 0.6702 | 0.4693 | 0.4085 | 0.3763 |
| N[C@@H](CCC(=O)O)C(=O)N[C@@H](CO)C(=O)N[C@@H](Cc1ccccc1)C(=O)NCC(=O)O [ESFG] (H-ESFG-OH) | 1.207 | 0.8233 | 1.441 | 1.518 | 1.053 | 1.4585 | 1.266 | 0.9822 | 1.358 |
| CC(C)[C@H](NC(=O)[C@@H](N)CCC(=O)O)C(=O)NCC(=O)NCC(=O)O [EVGG] (H-EVGG-OH) | 1.013 | 0.7941 | 0.8262 | 1.036 | 0.9151 | 0.9384 | 0.988 | 0.9676 | 0.8158 |
| O=C[C@H](O)[C@H](O)COP(=O)(O)O [Erythrose 4-phosphate] | 0.8874 | 1.021 | 0.7492 | 0.7497 | 0.9809 | 0.8462 | 0.7238 | 0.584 | 0.3651 |
| Cc1cc2nc3c(=O)[nH]c(=O)nc-3n(C[C@H](O)[C@H](O)[C@H](O)COP(=O)(O)OP(=O)(O)OC[C@H]3O[C@@H](n4cnc5c(N)ncnc54)[C@H](O)[C@@H]3O)c2cc1C [FAD] | 0.999 | 0.6842 | 0.7003 | 0.9752 | 0.8156 | 0.7377 | 0.855 | 0.7422 | 0.5377 |
| Cc1cc2nc3c(=O)[nH]c(=O)nc-3n(C[C@H](O)[C@H](O)[C@H](O)COP(=O)(O)O)c2cc1C [FMN] | 0.8812 | 0.6056 | 0.6532 | 1.341 | 1.123 | 0.8423 | 0.5112 | 0.5214 | 0.5073 |
| O=P(O)(O)OC[C@H]1O[C@](O)(COP(=O)(O)O)[C@@H](O)[C@@H]1O [Fructose-1-6-bisphosphate] | 2.629 | 3.883 | 1.856 | 2.007 | 1.872 | 1.498 | 1.953 | 1.49 | 0.822 |
